Data reported in patent US9840501B2, “Morpholin-pyridine derivatives” (Hoffmann-La Roche Inc., priority 2014, dated 2017).

Key:
mouse TAAR1 = mouse TAAR1 (Mus musculus (Mouse), UniProt Q923Y8); test: Radioligand binding assay on mouse TAAR1; conditions: mouse TAAR1, membranes of stably transfected HEK-293 cells; first value of the pair; read-out: Ki (μM) mouse/rat: mouse
Method: (§1) For the construction of expression plasmids the coding sequences of human, rat and mouse TAAR 1 were amplified from genomic DNA essentially as described by Lindemann et al.. The Expand High Fidelity PCR System (Roche Diagnostics) was used with 1.5 mM Mg^2+ and purified PCR products were cloned into pCR2.1-TOPO cloning vector (Invitrogen) following the instructions of the manufacturer. PCR products were subcloned into the pIRESneo2 vector (BD Clontech, Palo Alto, Calif.), and expression vectors were sequence verified before introduction in cell lines.
(§2) For the generation of stably transfected cell lines HEK293 cells were transfected with the pIRESneo2 expression plasmids containing the TAAR coding sequences (described above) with Lipofectamine 2000 (Invitrogen) according to the instructions of the manufacturer, and 24 hrs post transfection the culture medium was supplemented with 1 mg/ml G418 (Sigma, Buchs, Switzerland). After a culture period of about 10 d clones were isolated, expanded and tested for responsiveness to trace amines (all compounds purchased from Sigma) with the cAMP Biotrak Enzyme immunoassay (EIA) System (Amersham) following the non-acetylation EIA procedure provided by the manufacturer.
Radioligand Binding Assay on Mouse TAAR1
(§3) Membrane Preparation and Radioligand Binding.
(§4) Cells were released from culture flasks using trypsin/EDTA, harvested, washed twice with ice-cold PBS (without Ca^2+ and Mg^2+), pelleted at 1,000 rpm for 5 min at 4° C., frozen and stored at −80° C. Frozen pellets were suspended in 20 ml HEPES-NaOH (20 mM, pH 7.4) containing 10 mM EDTA and homogenized with a Polytron (PT 6000, Kinematica) at 14′000 rpm for 20 s. The homogenate was centrifuged at 48,000×g for 30 min at 4° C. Subsequently, the supernatant was removed and discarded, and the pellet resuspended in 20 ml HEPES-NaOH (20 mM, pH 7.4) containing 0.1 mM EDTA using the Polytron (20 s at 14′000 rpm). This procedure was repeated and the final pellet resuspended in HEPES-NaOH containing 0.1 mM EDTA and homogenized using the Polytron. Typically, aliquots of 2 ml membrane portions were stored at −80° C. With each new membrane batch the dissociation constant (Kd) was determined via a saturation curve. […] Nonspecific binding was defined as the amount of ^3[H]—(S)-4-[(ethyl-phenyl-amino)-methyl]-4,5-dihydro-oxazol-2-ylamine bound in the presence of 10 μM unlabeled ligand. All compounds were tested at a broad range of concentrations (10 pM to 10 μM) in duplicates. […] The 96 deep well plates were incubated for 1 hr at 4° C. Incubations were terminated by rapid filtration through Unifilter-96 plates (Packard Instrument Company) and glass filters GF/C (Perkin Elmer) presoaked for 1 hr in polyethylenimine (0.3%) and washed 3 times with 1 ml of cold binding buffer. After addition of 45 μl of Microscint 40 (PerkinElmer) the Unifilter-96 plate was sealed and after 1 hr the radioactivity counted using a TopCount Microplate Scintillation Counter (Packard Instrument Company).

rat TAAR1 = rat TAAR1 (Rattus norvegicus (Rat), UniProt Q923Y9); test: Radioligand binding assay on rat TAAR1; conditions: rat TAAR1, membranes of stably transfected HEK-293 cells; second value of the pair; read-out: Ki (μM) mouse/rat: rat
Sequence of rat TAAR1 (Q923Y9 whole entry): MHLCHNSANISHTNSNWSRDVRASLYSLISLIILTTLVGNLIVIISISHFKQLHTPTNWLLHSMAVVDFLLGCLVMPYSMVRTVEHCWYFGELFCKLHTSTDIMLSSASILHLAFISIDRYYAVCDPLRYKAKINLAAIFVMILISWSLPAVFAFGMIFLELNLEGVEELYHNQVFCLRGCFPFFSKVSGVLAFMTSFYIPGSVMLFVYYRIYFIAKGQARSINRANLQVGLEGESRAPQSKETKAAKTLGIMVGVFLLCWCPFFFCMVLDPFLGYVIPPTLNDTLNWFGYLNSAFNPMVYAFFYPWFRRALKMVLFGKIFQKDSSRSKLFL
Method: as §1, §2
Radioligand Binding Assay on Rat TAAR1
as §3
as §4, with “1′000” for “1,000”, “48′000×g” for “48,000×g”

Sequence of mouse TAAR1 (Q923Y8 whole entry): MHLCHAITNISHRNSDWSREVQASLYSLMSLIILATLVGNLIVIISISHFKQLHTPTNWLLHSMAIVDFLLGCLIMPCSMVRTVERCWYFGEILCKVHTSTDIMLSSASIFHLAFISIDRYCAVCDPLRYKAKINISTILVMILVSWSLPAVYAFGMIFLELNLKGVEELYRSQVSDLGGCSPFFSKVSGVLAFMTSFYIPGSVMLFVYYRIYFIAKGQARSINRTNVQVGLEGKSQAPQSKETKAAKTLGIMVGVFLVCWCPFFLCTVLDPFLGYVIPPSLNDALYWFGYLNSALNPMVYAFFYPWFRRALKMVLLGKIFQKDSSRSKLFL

SMILES	Ki (mouse TAAR1)	Ki (rat TAAR1)
Clc1ccc(Nc2ccc(C3CNCCO3)nc2)cc1 (racemic) [Example 1, (RS)—N-(4-Chlorophenyl)-6-morpholin-2-yl-pyridin-3-amine]	0.0017 µM	0.071 µM
Brc1ccc(Nc2ccc(C3CNCCO3)nc2)cc1 (racemic) [Example 2, (RS)—N-(4-Bromophenyl)-6-morpholin-2-yl-pyridin-3-amine]	0.0018 µM	0.0437 µM
CCOc1ccc(Nc2ccc(C3CNCCO3)nc2)cc1 (racemic) [Example 3, (RS)—N-(4-Ethoxyphenyl)-6-morpholin-2-yl-pyridin-3-amine]	0.0048 µM	0.374 µM
Fc1ccc(Nc2ccc(C3CNCCO3)nc2)cc1 (racemic) [Example 5, (RS)—N-(4-Fluorophenyl)-6-morpholin-2-yl-pyridin-3-amine]	0.0065 µM	0.372 µM
O=C(Nc1ccc(C2CNCCO2)nc1)c1ccc(Cl)cc1 (racemic) [Example 7, (RS)-4-Chloro-N-(6-morpholin-2-yl-3-pyridyl)benzamide]	0.0038 µM	0.0745 µM
O=C(Nc1ccc(F)cc1)Nc1ccc(C2CNCCO2)nc1 (racemic) [Example 9, (RS)-1-(4-Fluorophenyl)-3-(6-morpholin-2-yl-3-pyridyl)urea]	0.0071 µM	0.0106 µM
O=C(Nc1ccc(C(F)(F)F)cc1)Nc1ccc(C2CNCCO2)nc1 (racemic) [Example 10, (RS)-1-(6-Morpholin-2-yl-3-pyridyl)-3-[4-(trifluoromethyl)phenyl]urea]	0.0042 µM	0.0029 µM
O=C(Nc1ccc(Cl)cc1)Nc1ccc(C2CNCCO2)nc1 (racemic) [Example 11, (RS)-1-(4-Chlorophenyl)-3-(6-morpholin-2-yl-3-pyridyl)urea]	0.0038 µM	0.0047 µM
O=C(Nc1ccc(C2CNCCO2)nc1)c1cccc(Cl)c1 (racemic) [Example 12, (RS)-3-Chloro-N-(6-morpholin-2-yl-3-pyridyl)benzamide]	–	0.0889 µM
CCOc1ccc(C(=O)Nc2ccc(C3CNCCO3)nc2)cc1 (racemic) [Example 13, (RS)-4-Ethoxy-N-(6-morpholin-2-yl-3-pyridyl)benzamide]	0.0124 µM	0.328 µM
O=C(Nc1ccc(C2CNCCO2)nc1)c1ccc(F)cc1 (racemic) [Example 14, (RS)-4-Fluoro-N-(6-morpholin-2-yl-3-pyridyl)benzamide]	0.0084 µM	0.917 µM
O=C(Nc1ccc(C2CNCCO2)nc1)c1ccnc(C(F)(F)F)c1 (racemic) [Example 16, (RS)—N-(6-Morpholin-2-yl-3-pyridyl)-2-(trifluoromethyl)pyridine-4-carboxamide]	–	0.145 µM
FC(F)(F)c1nccc(Nc2ccc(C3CNCCO3)nc2)n1 (racemic) [Example 17, (RS)—N-(6-Morpholin-2-yl-3-pyridyl)-2-(trifluoromethyl)pyrimidin-4-amine]	0.0382 µM	0.466 µM
Clc1ccc(Nc2cnc(C3CNCCO3)nc2)cc1 (racemic) [Example 70, (RS)—N-(4-Chlorophenyl)-2-morpholin-2-yl-pyrimidin-5-amine]	0.0186 µM	1.45 µM
FC(F)(F)c1ccc(Nc2cnc(C3CNCCO3)nc2)cc1 (racemic) [Example 71, (RS)-2-Morpholin-2-yl-N-[4-(trifluoromethyl)phenyl]pyrimidin-5-amine]	0.0072 µM	0.195 µM
O=C(Nc1cnc(C2CNCCO2)nc1)c1ccc(Cl)cc1 (racemic) [Example 72, (RS)-4-Chloro-N-(2-morpholin-2-ylpyrimidin-5-yl)benzamide]	0.0058 µM	4.93 µM
CCOc1n[nH]c(C(=O)Nc2ccc(C3CNCCO3)nc2)c1Cl (racemic) [Example 74, (RS)-4-Chloro-3-ethoxy-N-(6-morpholin-2-yl-3-pyridyl)-1H-pyrazole-5-carboxamide]	–	0.066 µM
O=C(Nc1ccc(C2CNCCO2)nc1)c1[nH]nc(OCC(F)(F)F)c1Cl (racemic) [Example 75, (RS)-4-Chloro-N-(6-morpholin-2-yl-3-pyridyl)-3-(2,2,2-trifluoroethoxy)-1H-pyrazole-5-carboxamide]	–	0.0133 µM
FC(F)(F)c1ccc(Nc2cnc(C3CNCCO3)c(Cl)c2)nc1 (racemic) [Example 103, (RS)-5-Chloro-6-morpholin-2-yl-N-[5-(trifluoromethyl)-2-pyridyl]pyridin-3-amine]	–	0.122 µM
CCCc1n[nH]c(C(=O)Nc2cnc(C3CNCCO3)c(Cl)c2)c1Cl (racemic) [Example 108, (RS)-4-Chloro-N-(5-chloro-6-morpholin-2-yl-3-pyridyl)-3-propyl-1H-pyrazole-5-carboxamide]	0.0241 µM	–
Fc1cc(Nc2ccc(Cl)cn2)cnc1C1CNCCO1 (racemic) [Example 110, (RS)—N-(5-Chloro-2-pyridyl)-5-fluoro-6-morpholin-2-yl-pyridin-3-amine]	–	1.1 µM
O=C(Nc1ccc([C@@H]2CNCCO2)nc1)c1cccc(Cl)c1 [Example 32, 3-Chloro-N-[6-[(2S)-morpholin-2-yl]-3-pyridyl]benzamide]	–	0.0338 µM
O=C(Nc1ccc([C@@H]2CNCCO2)nc1)c1ccnc(C(F)(F)F)c1 [Example 34, N-[6-[(2S)-Morpholin-2-yl]-3-pyridyl]-2-(trifluoromethyl)pyridine-4-carboxamide]	–	0.147 µM
O=C(Nc1ccc([C@H]2CNCCO2)nc1)c1cccc(Cl)c1 [Example 52, 3-Chloro-N-[6-[(2R)-morpholin-2-yl]-3-pyridyl]benzamide]	–	0.0922 µM
O=C(Nc1ccc([C@H]2CNCCO2)nc1)c1ccnc(C(F)(F)F)c1 [Example 54, N-[6-[(2R)-Morpholin-2-yl]-3-pyridyl]-2-(trifluoromethyl)pyridine-4-carboxamide]	–	0.283 µM
CCOc1n[nH]c(C(=O)Nc2ccc([C@H]3CNCCO3)nc2)c1Cl [Example 100, 4-Chloro-3-ethoxy-N-[6-[(2R)-morpholin-2-yl]-3-pyridyl]-1H-pyrazole-5-carboxamide]	–	0.123 µM
O=C(Nc1ccc([C@H]2CNCCO2)nc1)c1[nH]nc(OCC(F)(F)F)c1Cl [Example 101, 4-Chloro-N-[6-[(2R)-morpholin-2-yl]-3-pyridyl]-3-(2,2,2-trifluoroethoxy)-1H-pyrazole-5-carboxamide]	–	0.0225 µM
O=C(Nc1ccc([C@@H]2CNCCO2)nc1)c1[nH]nc(OCC(F)(F)F)c1Cl [Example 105, 4-Chloro-N-[6-[(2S)-morpholin-2-yl]-3-pyridyl]-3-(2,2,2-trifluoroethoxy)-1H-pyrazole-5-carboxamide]	–	0.0176 µM
CCOc1n[nH]c(C(=O)Nc2ccc([C@@H]3CNCCO3)nc2)c1Cl [Example 106, 4-Chloro-3-ethoxy-N-[6-[(2S)-morpholin-2-yl]-3-pyridyl]-1H-pyrazole-5-carboxamide]	–	0.137 µM
